Earlier results, collected in US7976880B2, “Pregnane glycoside compositions and Caralluma extract products and uses thereof” (priority 2003, dated 2011).
Like-named read-outs stand apart in the source and are kept apart here.

Test system: appetite
Conditions: 3 mg per kg body weight

Structure (SMILES): O=C(O)CC(O)(C(=O)O)C(O)C(=O)O (single isomer, unassigned; (-)) [HCA, (−)-hydroxycitrate]
- Reduction in appetite (at 6.5 hours): about 43%
- Reduction in appetite (at 24 hours): about 29%
